Laboratory results reported in patent US6218431A, “Substituted biphenyls” (Bayer Corporation, priority 1997, dated 2001).

Each compound was assayed against T1, glucagon receptor (Homo sapiens, UniProt P47871) (assay: glucagon receptor binding assay (125I-glucagon, CHO-HGR membranes)). Conditions: 20 μM; reported where 20 μM did not reduce glucagon binding by 50%.
T1 construct: expressed in transfected cells; host or cells: Chinese Hamster Ovary cells (CHO-HGR), membranes
Protocol: The affinity for the glucagon receptor of compounds of the present invention is determined by the glucagon receptor binding assay. Membranes were prepared from Chinese Hamster Ovary cells expressing the glucagon receptor (CHO-HGR) by scraping the cells into hypotonic lysis buffer (10 mM Tris, pH 7.4, 2 mM EDTA, 5 mM MgCl2 and 1 mM PMSF) and subjecting the material to Polytron homogenization. Nuclei were removed by a 15-min 800×g centrifugation step conducted at 4° C. Membranes containing the receptor were collected by centrifugation at 15,000×gfor 15 min at 4° C. The membranes were washed once in lysis buffer and suspended in 0.25 M sucrose, 10 mM Tris, 5 mM EDTA, pH 7.4. The membranes were used in ligand binding studies as reported (Yoo-Warren, H., Willse, A. G., Hancock, N., Hull, J., McCaleb, M., and Livingston, J. Regulation of Rat Glucagon Receptor Expression. Biochem. Biophysical Res. Commun. 1994, 205, 347-353). In brief, 10 ug of membrane protein was incubated in 130 μl of binding buffer that consisted of 20 mM Tris, […], 1 mM EDTA, 1 mg/ml BSA, and 1 mg/ml bacitracin. The membrane suspension was placed in each well of a 96-well filtration plate (glass fiber type C, Millipore). […] Following the addition of test compound, 50 μl of ^125 I-glucagon (9 fmol) (NEN) was added to each well. Control wells contained membranes, 0.5% DMSO (solvent for test compounds), radiolabeled glucagon without and with excess native glucagon (1 μM) to establish nonspecific binding. The plates were incubated for 60 min at room temperature, and then filtered on a Mllipore vacuum apparatus. Following a wash step with ice-cold PBS/0.1% BSA, the filters were punched into test tubes, and the membrane bound radioactivity was determined.

T1 sequence (P47871 26-477): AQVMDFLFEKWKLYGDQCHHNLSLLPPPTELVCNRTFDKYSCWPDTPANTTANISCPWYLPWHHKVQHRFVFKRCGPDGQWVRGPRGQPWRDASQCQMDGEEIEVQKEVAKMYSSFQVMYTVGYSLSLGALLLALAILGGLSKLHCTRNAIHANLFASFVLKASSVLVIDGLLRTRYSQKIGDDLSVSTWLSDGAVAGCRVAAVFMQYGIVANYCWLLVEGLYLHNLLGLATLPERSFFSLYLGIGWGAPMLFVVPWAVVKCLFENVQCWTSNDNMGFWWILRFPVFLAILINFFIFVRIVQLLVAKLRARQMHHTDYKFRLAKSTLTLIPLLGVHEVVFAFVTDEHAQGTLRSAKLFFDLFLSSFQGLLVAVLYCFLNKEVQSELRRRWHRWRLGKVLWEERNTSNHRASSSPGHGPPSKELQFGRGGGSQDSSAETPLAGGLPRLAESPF

Structure (SMILES) | inhibition at 20 µM [%]
CCCCCc1c(C(C)C)nc(C(C)C)c(CO)c1-c1ccccc1OC [Example 173, 2,6-Diisopropyl-3-hydroxymethyl-4-(2-methoxyphenyl)-5-pentylpyridine] | 27.4
CCC/C=C/c1c(C(C)C)nc(C(C)C)c(CO)c1-c1ccc(C(F)(F)F)cc1 [Example 125, 2,6-Diisopropyl-3-hydroxymethyl-4-[(4-trifluoromethyl)phenyl]-5(pent-1-enyl)pyridine] | 31.6
CCCCCc1c(C(C)C)nc(C(C)C)c(CO)c1-c1ccccc1C [Example 142, 2,6-Diisopropyl-3-hydroxymethyl-4-(2-methylphenyl)-5pentylpyridine] | 33.1
CCC(O)c1c(C(C)C)nc(C(C)C)c(CO)c1-c1ccc(F)cc1 (racemic) [Example 94, (±)-2,6-Diisopropyl-3-hydroxymethyl-4-(4-fluorophenyl)-5-(1-hydroxy-propyl)pyridine] | 38.5
CCCCCc1c(C(C)C)nc(C(C)C)c(CO)c1-c1ccc(OC)cc1 [Example 169, 2,6-Diisopropyl-3-hydroxymethyl-4-(4-methoxyphenyl)-5-pentyl-pyridine] | 37.1
CC(C)c1nc(C(C)C)c(CCCCCCCN(C)C)c(-c2ccc(F)cc2)c1CO [Example 90] | 29.1
CCCCCc1c(C(C)C)nc(C(C)C)c(CO)c1-c1ccc(F)c(C(O)c2ccc(F)cc2)c1 (stereo not drawn) [Example 181, 2,6-Diisopropyl-3-hydroxymethyl-4-[4-fluoro-3-(α-hydroxy-4-fluorobenzyl)phenyl]-5-pentylpyridine] | 46
CC(C)c1nc(C(C)C)c(CCCCCCCCC(=O)O)c(-c2ccc(F)cc2)c1CO [Example 91] | 14.2
CCCC=Cc1c(C(C)C)nc(C(C)C)c(CO)c1-c1cccc(Cl)c1 [Example 145, 2,6-Diisopropyl-3-hydroxymethyl-4-(3-chlorophenyl)-5-(pent-1-enyl)-pyridine] | 41.4
CC(C)c1nc(C(C)C)c(CN2CCC(N3CCCCC3)CC2)c(-c2ccc(F)cc2)c1CO [Example 74, 2,6-Diisopropyl-3-hydroxymethyl-4-(4-fluorophenyl)-5-[(4-piperidinopiperidin-1-yl)methyl]pyridine] | 27.1
CCCCCc1c(C(C)C)nc(C(C)C)c(CO)c1-c1ccc(CC)cc1 [Example 132, 2,6-Diisopropyl-3-hydroxymethyl-4-(4-ethylphenyl)-5-pentylpyridine] | 42.5

Same assay, conditions: 125I-glucagon; 60 min at room temperature; read-out: IC50

Structure (SMILES) | IC50 [µM]
CC(C)c1nc(C(C)C)c(CSCCc2ccccc2)c(-c2ccc(F)cc2)c1CO [Example 65, 2,6-Diisopropyl-3-hydroxymethyl-4-(4-fluorophenyl)-5-[(phenethyl)-thiomethyl]pyridine] | 0.75
CCCc1c(C(C)C)nc(C(C)C)c(CO)c1-c1ccc(F)cc1O (racemic) [Example 239-rac, 2,6-Diisopropyl-3-(1-hydroxymethyl)-4-(4-fluoro-2-hydroxyphenyl)-5-propylpyridine] | 0.08
CSCc1c(C(C)C)nc(C(C)C)c(CO)c1-c1ccc(F)cc1 [Example 67, 2,6-Diisopropyl-3-hydroxymethyl-4-(4-fluorophenyl)-5-(methylthio)-methylpyridine] | 1.1
CCCCCc1c(C(C)C)nc(C(C)C)c(CO)c1-c1ccc(F)cc1 [Example 1] | 0.6
Cc1cc(C)cc(SCc2c(C(C)C)nc(C(C)C)c(CO)c2-c2ccc(F)cc2)c1 [Example 61, 2,6-Diisopropyl-3-hydroxymethyl-4-(4-fluorophenyl)-5-[(3,5dimethylphenyl)thio]methylpyridine] | 3.4
COC(C)c1c(C(C)C)nc(C(C)C)c(CO)c1-c1ccc(F)cc1 (racemic) [Example 98, (±)-2,6-Diisopropyl-3-hydroxymethyl-4-(4-fluorophenyl)-5-(1-methoxyethyl)pyridine] | 14
CCCCCc1c(CCc2ccccc2)nc(C(C)C)c(CO)c1-c1ccc(F)cc1 [Example 227, 2-Isopropyl-3-hydroxymethyl-4-(4-fluorophenyl)-5-pentyl-6-(2-phenylethyl)pyridine] | 1.3
CCCCCc1c(C(C)OCC)nc(C(C)C)c(CO)c1-c1ccc(F)cc1 (stereo not shown) [Example 217, 2-(1-Ethoxyethyl)-3-pentyl-4-(4-fluorophenyl)-5-hydroxymethyl-6-isopropylpyridine] | 8
CC(C)c1nc(C(C)C)c(C(C)O)c(-c2ccc(F)cc2)c1-c1ccccc1 (stereo not shown) [Example 233, 2,6-Diisopropyl-3-(1-hydroxyethyl)-4-(4-fluorophenyl)-5-phenylpyridine] | 0.6
CC(C)c1nc(C(C)C)c(CNC2CC2)c(-c2ccc(F)cc2)c1CO [Example 77, 2,6-Diisopropyl-3-hydroxymethyl-4-(4-fluorophenyl)-5-(cyclopropyl-amino)methylpyridine] | 6
CCCCCCc1c(C(C)C)nc(C(C)C)c(CO)c1-c1ccc(F)cc1 [Example 23, 2,6-Diisopropyl-3-hydroxymethyl-4-(4-fluorophenyl)-5-hexylpyridine] | 0.39
CC(C)c1nc(C(C)C)c(CCCc2ccccc2)c(-c2ccc(F)cc2)c1CO [Example 83] | 0.65
CCc1c(C(C)C)cc(C(C)C)c(C(C)O)c1-c1ccc(F)cc1O (stereo not shown) [Example 246, 3,5-Diisopropyl-2-(1-hydroxyethyl)-6-ethyl-4'-fluoro-2'-hydroxy-1,1'-biphenyl] | 0.011
CCCCCc1c(C(C)C)nc(C(C)C)c(CO)c1-c1cccc(O)c1 [Example 153, 2,6-Diisopropyl-3-hydroxymethyl-4-(3-hydroxyphenyl)-5-pentylpyridine] | 6
Cc1c(C(C)C)nc(C(C)C)c(CO)c1-c1ccc(F)cc1 [Example 81] | 7.5
CCCCCc1c(COCC)nc(C(C)C)c(CO)c1-c1ccc(F)cc1 [Example 202, 2-Ethoxymethyl-3-pentyl-4-(4-fluorophenyl)-5-hydroxymethyl-6-isopropylpyridine] | 9
Cc1cccc(/C=C/c2c(C(C)C)nc(C(C)C)c(CO)c2-c2ccc(F)cc2)c1 [Example 41, 2,6-Diisopropyl-3-hydroxvmethyl-4-(4fluorophenyl)-5-[2(E)-(3-methyl-phenyl)ethenyl]pyridine] | 0.6
CC=Cc1c(C(C)C)nc(C(C)C)c(CO)c1-c1ccc(F)cc1 [Example 21, 2,6-Diisopropyl-3-hydroxymethyl-4-(4-fluorophenyl)-5-(1-propenyl)-pyridine] | 0.8
CCCc1c(C(C)C)nc(C(C)C)c(CO)c1-c1ccc(F)cc1 [Example 25, 2,6-Diisopropyl-3-hydroxymethyl-4-(4-fluorophenyl)-5-propylpyridine] | 0.4
CC(C)c1nc(C(C)C)c(CSc2ccc(F)cc2)c(-c2ccc(F)cc2)c1CO [Example 49, 2,6-Diisopropyl-3-hydroxymethyl-4-(4-fluorophenyl)-5-[(4-fluoro-phenyl)thio]methylpyridine] | 1.1
CC(C)CC=Cc1c(C(C)C)nc(C(C)C)c(CO)c1-c1ccc(F)cc1 [Example 28, 2,6Diisopropyl-3-hydroxymethyl-4-(4-fluorophenyl)-5-(4-methyl-1-pentenyl)pyridine] | 1
CC(C)c1cc(C(C)C)c(CSc2cc(Cl)cc(Cl)c2)c(-c2ccc(F)cc2)c1CO [Example 285] | 9
CCC=Cc1c(C(C)C)nc(C(C)C)c(CO)c1-c1ccccc1 [Example 13] | 3
CC1=CC(C)(C)Cc2c1nc(C(C)C)c(CO)c2-c1ccc(F)cc1 [Example 236, 2-Isopropyl-3-hydroxymethyl-4-(4-fluorophenyl)-5,6-dihydro-6,6,8-trimethylquinoline] | 4
CCCc1c(C(C)C)nc(C(C)C)c(CO)c1-c1ccc(F)cc1O (single isomer, unassigned) [Example 239-E1, 2,6-Diisopropyl-3-(1-hydroxymethyl)-4-(4-fluoro-2-hydroxyphenyl)-5-propylpyridine] | 2.5
CC(C)c1nc(C(C)C)c(CSc2cccc3ccccc23)c(-c2ccc(F)cc2)c1CO [Example 51, 2,6-Diisopropyl-3-hydroxymethyl-4-(4-fluorophenyl)-5-(1-naphthylthio)-methylpyridine] | 16
CCCc1c(C(C)C)nc(C(C)C)c(CO)c1-c1ccccc1 [Example 17] | 0.6
COc1ccc(SCc2c(C(C)C)nc(C(C)C)c(CO)c2-c2ccc(F)cc2)cc1 [Example 56, 2,6-Diisopropyl-3-hydroxymethyl-4-(4-fluorophenyl)-5-[(4-methoxy-phenyl)thio]methylpyridine] | 1.9
Cc1ccc(SCc2c(C(C)C)cc(C(C)C)c(C(C)O)c2-c2ccc(F)cc2)cc1 (single isomer, unassigned; (+)) [Example 249, (+)-3,5-Diisopropyl-2-[(p-tolylthio)methyl]-6-(1-hydroxyethyl)-4'-fluoro-1,1'-biphenyl] | 0.13
